From US9328122B2, “7-substituted Hanfangichin B derivative, and preparation method and use thereof” (HANGZHOU BENSHENG PHARMACEUTICAL CO., LTD., priority 2012, dated 2016) come the findings set out here.

The IC50 is the concentration needed to halve the response being measured. A word on the IC90: it is the concentration at which the effect reaches the 90% level.

Each structure is given as a SMILES string. In brackets after ≈: the same amount, converted by molar mass.

The first assay has as its system MGC-803 (human gastric cancer) cells. Briefly: MTT cell growth inhibition, solid tumor cells. It counts as cell-based. The conditions noted are these: MGC-803, 72 h, MTT, read-out: IC50. The essentials: (§1)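 MTT was used to measure cell survival. Wells held 6000 cells in 10% FBS high-glucose DMEM, pre-incubated 24 h, then dosed with compound at various concentrations for 72 h (37 °C, 5% CO2).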
In the case of `COc1ccc2cc1Oc1ccc(cc1)C[C@H]1c3cc(c(OC)cc3CCN1C)Oc1c(OC(=O)C3CC3)c(OC)cc3c1[C@H](C2)N(C)CC3` [BS-FC-304], the IC50 was found to be 1.87 µg/mL (≈ 2.76 µM).

For `COc1cc(OC)cc(C(=O)Oc2c(OC)cc3c4c2Oc2cc5c(cc2OC)CCN(C)[C@H]5Cc2ccc(cc2)Oc2cc(ccc2OC)C[C@@H]4N(C)CC3)c1` [BS-FC-311], the IC50 was 1.4 µg/mL (≈ 1.81 µM).

For `COc1ccc2cc1Oc1ccc(cc1)C[C@H]1c3cc(c(OC)cc3CCN1C)Oc1c(OC(=O)c3c(F)cccc3Cl)c(OC)cc3c1[C@H](C2)N(C)CC3` [BS-FC-315], the IC50 was determined as 1.21 µg/mL (≈ 1.58 µM).

Take `COc1ccc2cc1Oc1ccc(cc1)C[C@H]1c3cc(c(OC)cc3CCN1C)Oc1c(OCC(O)CN3CCCCC3)c(OC)cc3c1[C@H](C2)N(C)CC3` (stereo partly drawn) [BS-FC-403]: the half-maximal inhibitory concentration (IC50) worked out at 0.4 µg/mL (≈ 0.533 µM).

Still in this assay, the particulars now being: MGC-803, 72 h, MTT, read-out: IC90.
For the compound `COc1ccc2cc1Oc1ccc(cc1)C[C@H]1c3cc(c(OC)cc3CCN1C)Oc1c(OC(=O)C3CC3)c(OC)cc3c1[C@H](C2)N(C)CC3` [BS-FC-304], the IC90 came to 10.2 µg/mL (≈ 15.1 µM).

For `COc1cc(OC)cc(C(=O)Oc2c(OC)cc3c4c2Oc2cc5c(cc2OC)CCN(C)[C@H]5Cc2ccc(cc2)Oc2cc(ccc2OC)C[C@@H]4N(C)CC3)c1` [BS-FC-311], the IC90 turned out to be 4.79 µg/mL (≈ 6.2 µM).

Consider `COc1ccc2cc1Oc1ccc(cc1)C[C@H]1c3cc(c(OC)cc3CCN1C)Oc1c(OC(=O)c3c(F)cccc3Cl)c(OC)cc3c1[C@H](C2)N(C)CC3` [BS-FC-315], for which the IC90 is 3.02 µg/mL (≈ 3.95 µM).

Turning to `COc1ccc2cc1Oc1ccc(cc1)C[C@H]1c3cc(c(OC)cc3CCN1C)Oc1c(OCC(O)CN3CCCCC3)c(OC)cc3c1[C@H](C2)N(C)CC3` (stereo partly drawn) [BS-FC-403], the IC90 was found to be 4.14 µg/mL (≈ 5.52 µM).

Another assay has as its system A549 (human lung cancer) cells. Briefly: MTT cell growth inhibition, solid tumor cells. The format is cell-based. The conditions noted are these: Homo sapiens; A549, 72 h, MTT; read-out: IC50. The procedure, abridged:
as §1
As to `COc1ccc2cc1Oc1ccc(cc1)C[C@H]1c3cc(c(OC)cc3CCN1C)Oc1c(OC(=O)C3CC3)c(OC)cc3c1[C@H](C2)N(C)CC3` [BS-FC-304], the IC50 is 2.24 µg/mL (≈ 3.31 µM).

As to `COc1cc(OC)cc(C(=O)Oc2c(OC)cc3c4c2Oc2cc5c(cc2OC)CCN(C)[C@H]5Cc2ccc(cc2)Oc2cc(ccc2OC)C[C@@H]4N(C)CC3)c1` [BS-FC-311], the IC50 was 1.36 µg/mL (≈ 1.76 µM).

Consider `COc1ccc2cc1Oc1ccc(cc1)C[C@H]1c3cc(c(OC)cc3CCN1C)Oc1c(OC(=O)c3c(F)cccc3Cl)c(OC)cc3c1[C@H](C2)N(C)CC3` [BS-FC-315], for which the IC50 turned out to be 1.85 µg/mL (≈ 2.42 µM).

Consider `COc1ccc2cc1Oc1ccc(cc1)C[C@H]1c3cc(c(OC)cc3CCN1C)Oc1c(OCC(O)CN3CCCCC3)c(OC)cc3c1[C@H](C2)N(C)CC3` (stereo partly drawn) [BS-FC-403], for which the IC50 was 1.84 µg/mL (≈ 2.45 µM).

The same assay, now with this note: Homo sapiens; A549, 72 h, MTT; read-out: IC90.
In the case of `COc1ccc2cc1Oc1ccc(cc1)C[C@H]1c3cc(c(OC)cc3CCN1C)Oc1c(OC(=O)C3CC3)c(OC)cc3c1[C@H](C2)N(C)CC3` [BS-FC-304], the IC90 came to 5.59 µg/mL (≈ 8.26 µM).

For the compound `COc1cc(OC)cc(C(=O)Oc2c(OC)cc3c4c2Oc2cc5c(cc2OC)CCN(C)[C@H]5Cc2ccc(cc2)Oc2cc(ccc2OC)C[C@@H]4N(C)CC3)c1` [BS-FC-311], the IC90 stood at 4.38 µg/mL (≈ 5.67 µM).

Regarding `COc1ccc2cc1Oc1ccc(cc1)C[C@H]1c3cc(c(OC)cc3CCN1C)Oc1c(OC(=O)c3c(F)cccc3Cl)c(OC)cc3c1[C@H](C2)N(C)CC3` [BS-FC-315], the concentration for an effect of 90% (IC90) came out at 3.48 µg/mL (≈ 4.55 µM).

On to `COc1ccc2cc1Oc1ccc(cc1)C[C@H]1c3cc(c(OC)cc3CCN1C)Oc1c(OCC(O)CN3CCCCC3)c(OC)cc3c1[C@H](C2)N(C)CC3` (stereo partly drawn) [BS-FC-403], for which the IC90 is 6.34 µg/mL (≈ 8.45 µM).

The subject of a further assay is Hep-2 (laryngeal carcinoma) cells. Briefly: MTT cell growth inhibition, solid tumor cells. It counts as cell-based. The conditions noted are these: Homo sapiens; Hep-2, 72 h, MTT; read-out: IC50. The procedure, abridged: as §1
`COc1ccc2cc1Oc1ccc(cc1)C[C@H]1c3cc(c(OC)cc3CCN1C)Oc1c(OC(=O)C3CC3)c(OC)cc3c1[C@H](C2)N(C)CC3` [BS-FC-304]: the IC50 stood at 4.95 µg/mL (≈ 7.31 µM).

Consider `COc1cc(OC)cc(C(=O)Oc2c(OC)cc3c4c2Oc2cc5c(cc2OC)CCN(C)[C@H]5Cc2ccc(cc2)Oc2cc(ccc2OC)C[C@@H]4N(C)CC3)c1` [BS-FC-311], for which the IC50 worked out at 1.64 µg/mL (≈ 2.12 µM).

As for `COc1ccc2cc1Oc1ccc(cc1)C[C@H]1c3cc(c(OC)cc3CCN1C)Oc1c(OC(=O)c3c(F)cccc3Cl)c(OC)cc3c1[C@H](C2)N(C)CC3` [BS-FC-315], the IC50 was 3.66 µg/mL (≈ 4.78 µM).

In the case of `COc1ccc2cc1Oc1ccc(cc1)C[C@H]1c3cc(c(OC)cc3CCN1C)Oc1c(OCC(O)CN3CCCCC3)c(OC)cc3c1[C@H](C2)N(C)CC3` (stereo partly drawn) [BS-FC-403], the IC50 stood at 1.76 µg/mL (≈ 2.35 µM).

The assay is the same for the next values; noted with them: Homo sapiens; Hep-2, 72 h, MTT; read-out: IC90.
`COc1ccc2cc1Oc1ccc(cc1)C[C@H]1c3cc(c(OC)cc3CCN1C)Oc1c(OC(=O)C3CC3)c(OC)cc3c1[C@H](C2)N(C)CC3` [BS-FC-304]: the IC90 worked out at 12.2 µg/mL (≈ 18.1 µM).

With `COc1cc(OC)cc(C(=O)Oc2c(OC)cc3c4c2Oc2cc5c(cc2OC)CCN(C)[C@H]5Cc2ccc(cc2)Oc2cc(ccc2OC)C[C@@H]4N(C)CC3)c1` [BS-FC-311], the concentration for an effect of 90% (IC90) came to 4.85 µg/mL (≈ 6.28 µM).

Turning to `COc1ccc2cc1Oc1ccc(cc1)C[C@H]1c3cc(c(OC)cc3CCN1C)Oc1c(OC(=O)c3c(F)cccc3Cl)c(OC)cc3c1[C@H](C2)N(C)CC3` [BS-FC-315], the IC90 was found to be 6.4 µg/mL (≈ 8.36 µM).

Take `COc1ccc2cc1Oc1ccc(cc1)C[C@H]1c3cc(c(OC)cc3CCN1C)Oc1c(OCC(O)CN3CCCCC3)c(OC)cc3c1[C@H](C2)N(C)CC3` (stereo partly drawn) [BS-FC-403]: the IC90 was determined as 5.66 µg/mL (≈ 7.55 µM).
